≈ marks a conversion by molar mass, not a printed value. Where two headings read alike, the source gives them in different places.
Experiments:
Type in all cases: cell-based
[1] = system: Escherichia coli K 12-R 148; test: In vitro MIC by serial dilution in liquid medium, Escherichia coli K 12-R 148; settings: K12R148; Escherichia coli K 12-R 148, inactivating enzyme APH (3') II; Nutrient Broth Difco, 24 hours, 37° C; read-out: minimum inhibitory concentration (MIC)
Procedure: (§1) The "in vitro" tests are carried out with the method of serial dilutions in liquid medium (Nutrient Broth Difco) and the minimal inhibition concentration (MIC) is determined after 24 hours incubation at 37° C.

Escherichia coli K 12 = test: In vitro MIC by serial dilution in liquid medium, Escherichia coli K 12; settings: K12, Nutrient Broth Difco, 24 hours, 37° C, read-out: minimum inhibitory concentration (MIC)
Procedure: as §1

[2] = system: Staphylococcus aureus 209P; test: In vitro MIC by serial dilution in liquid medium, Staphylococcus aureus 209P; settings: read-out: minimum inhibitory concentration (MIC)
Procedure: as §1

[3] = system: Escherichia coli K 12-R 55; test: In vitro MIC by serial dilution in liquid medium, Escherichia coli K 12-R 55; settings: K12R55; Escherichia coli K 12-R 55, inactivating enzyme AAC (3) I; Nutrient Broth Difco, 24 hours, 37° C; read-out: minimum inhibitory concentration (MIC)
Procedure: as §1

[4] = system: Escherichia coli K 12-R 112; test: In vitro MIC by serial dilution in liquid medium, Escherichia coli K 12-R 112; settings: K12R112, 24 h, read-out: minimum inhibitory concentration (MIC)
Procedure: as §1

bacteria = test: In vitro antibacterial activity (general statement)
Procedure: as §1

[5] = system: resistant strains of gram-negative bacteria; test: In vitro antibacterial activity, resistant strains of gram-negative bacteria (summary in words); settings: against some resistant strains of gram-negative bacteria
Procedure: as §1

[6] = Staphylococcus aureus 209P, Nutrient Broth Difco, 24 hours, 37° C

SMILES	MIC [1]	MIC (Escherichia coli K 12)	MIC ([2]; Staphylococcus aureus, 209P, 24 h)	MIC [3]	MIC [4]	MIC [2, 6]	antibacterial activity "in vitro" (bacteria)	activity compared with paromomycin [5]
NC[C@@H]1O[C@H](O[C@H]2[C@@H](O)[C@H](O[C@@H]3[C@@H](O)[C@H](N)C[C@H](N)[C@H]3O[C@H]3O[C@H](CO)[C@@H](O)[C@H](O)[C@H]3N)O[C@@H]2CO)[C@H](N)[C@@H](O)[C@@H]1O [paromomycin]	> 200 µg/mL	12.5 µg/mL (≈ 20.3 µM)	1.55 µg/mL (≈ 2.52 µM)	6.25 µg/mL (≈ 10.2 µM)	> 200 µg/mL			
NC[C@@H]1O[C@H](O[C@H]2[C@@H](O)[C@H](O[C@@H]3[C@@H](O)[C@H](N)C[C@H](N)[C@H]3O[C@H]3O[C@H](CO)[C@H](Cl)[C@H](O)[C@H]3N)O[C@@H]2CO)[C@H](N)[C@@H](O)[C@@H]1O [(12), 4'-Deoxy-4'-epi-chloro-paromomycin]	200 µg/mL (≈ 315 µM)	50 µg/mL (≈ 78.9 µM)		50 µg/mL (≈ 78.9 µM)	> 200 µg/mL	6.25 µg/mL (≈ 9.86 µM)	display antibacterial activity	
NC[C@@H]1O[C@H](O[C@H]2[C@@H](O)[C@H](O[C@@H]3[C@@H](O)[C@H](N)C[C@H](N)[C@H]3O[C@H]3O[C@H](CO)C[C@H](O)[C@H]3N)O[C@@H]2CO)[C@H](N)[C@@H](O)[C@@H]1O [(8), 4'-Deoxy paromomycin]	50 µg/mL (≈ 83.4 µM)	12.5 µg/mL (≈ 20.8 µM)		6.25 µg/mL (≈ 10.4 µM)	> 200 µg/mL	1.55 µg/mL (≈ 2.58 µM)	display antibacterial activity	increased activity against some resistant strains of gram-negative bacteria

Reference: patent US4337248A, “Paromomycin containing compounds and method of use” (Farmitalia Carlo Erba S.p.A., priority 1979, dated 1982)
